Laboratory results: PubChem BioAssay AID330 (DTP/NCI, 2004)
Values joined by “and” are separate entries in the source; they are usually repeats but may differ in a detail not shown here. Equal values may be shown once. Toxic doses and inconclusive results are not listed. Rule for the calls: active = survival T/C of 150% or more; inactive = T/C below 125% in these data.

System: P388 leukemia ip, CD2F1 mice, survival T/C
Experiment: NCI In Vivo Anticancer Drug Screen. Data for tumor model P388 Leukemia (intraperitoneal) in CD2F1 (CDF1) mice
Settings: endpoint: median survival time, higher = longer survival
Outline: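 Mice carrying the transplanted tumor received test compound or vehicle. Survival was recorded in each group, and the value is the treated-group measurement divided by that of the vehicle-treated control group.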

[1] = dose: 50.0 mg/kg/injection, schedule: Q01DX005 (ip), vehicle: Klucel (hydroxypropylcellulose) (HPC)
[2] = dose: 100.0 mg/kg/injection, schedule: Q01DX005 (ip), vehicle: Klucel (hydroxypropylcellulose) (HPC)
[3] = dose: 200.0 mg/kg/injection, schedule: Q01DX005 (ip), vehicle: Klucel (hydroxypropylcellulose) (HPC)
[4] = dose: 30.0 mg/kg/injection, schedule: Q01DX005 (ip), vehicle: Klucel (hydroxypropylcellulose) (HPC)
[5] = dose: 60.0 mg/kg/injection, schedule: Q01DX005 (ip), vehicle: Klucel (hydroxypropylcellulose) (HPC)
[6] = dose: 50.0 mg/kg/injection, schedule: Q01DX009 (ip), vehicle: Klucel (hydroxypropylcellulose) (HPC)
[7] = dose: 100.0 mg/kg/injection, schedule: Q01DX009 (ip), vehicle: Klucel (hydroxypropylcellulose) (HPC)
[8] = dose: 200.0 mg/kg/injection, schedule: Q01DX009 (ip), vehicle: Klucel (hydroxypropylcellulose) (HPC)
[9] = dose: 60.0 mg/kg/injection, schedule: Q01DX005 (ip), vehicle: saline with Tween-80
[10] = dose: 120.0 mg/kg/injection, schedule: Q01DX005 (ip), vehicle: saline with Tween-80
[11] = dose: 240.0 mg/kg/injection, schedule: Q01DX005 (ip), vehicle: saline with Tween-80
[12] = dose: 50.0 mg/kg/injection, schedule: Q01DX005 (ip), vehicle: saline with Tween-80
[13] = dose: 100.0 mg/kg/injection, schedule: Q01DX005 (ip), vehicle: saline with Tween-80
[14] = dose: 200.0 mg/kg/injection, schedule: Q01DX005 (ip), vehicle: saline with Tween-80
[15] = dose: 120.0 mg/kg/injection, schedule: Q01DX005 (ip), vehicle: Klucel (hydroxypropylcellulose) (HPC)

Measured: T/C

CC(=O)OCC1OC(n2cnc3c(=S)nc[nH]c32)C(OC(C)=O)C1OC(C)=O (stereo not drawn)
inactive: dose: 100.0 mg/kg/injection, schedule: Q04DX003 (ip), vehicle: saline with Tween-80 109 % of control | dose: 200.0 mg/kg/injection, schedule: Q04DX003 (ip), vehicle: saline with Tween-80 109 % of control | dose: 400.0 mg/kg/injection, schedule: Q04DX003 (ip), vehicle: saline with Tween-80 118 % of control

C/C=C/C(C#N)OC(C)=O (stereo not drawn)
inactive: dose: 3.75 mg/kg/injection, schedule: Q01DX005 (ip), vehicle: saline 100 % of control | dose: 7.5 mg/kg/injection, schedule: Q01DX005 (ip), vehicle: saline 100 % of control

Cc1[nH]ccc(=O)c1OC(=O)C12CC3CC(CC(C3)C1)C2
inactive: [1] 94 % of control and 98 % of control | [2] 91 % of control and 97 % of control | [3] 101 % of control and 95 % of control | dose: 400.0 mg/kg/injection, schedule: Q01DX005 (ip), vehicle: Klucel (hydroxypropylcellulose) (HPC) 103 % of control and 98 % of control

COc1c2occc2c(CCl)c2ccc(=O)oc12
inactive: dose: 15.0 mg/kg/injection, schedule: Q01DX005 (ip), vehicle: Klucel (hydroxypropylcellulose) (HPC) 115 % of control | [4] 111 % of control | [5] 111 % of control and 116 % of control

COc1cc[n+](CCc2c[nH]c3ccccc23)cc1
inactive: dose: 12.5 mg/kg/injection, schedule: Q01DX009 (ip), vehicle: saline with Tween-80 109 % of control | dose: 25.0 mg/kg/injection, schedule: Q01DX009 (ip), vehicle: saline with Tween-80 104 % of control | dose: 50.0 mg/kg/injection, schedule: Q01DX009 (ip), vehicle: saline with Tween-80 113 % of control

O=C(CCCc1ccc(N2C(=O)C=CC2=O)cc1)ON1C(=O)CCC1=O
inactive: dose: 12.5 mg/kg/injection, schedule: Q04DX002 (ip), vehicle: saline with Tween-80 105 % of control | dose: 25.0 mg/kg/injection, schedule: Q04DX002 (ip), vehicle: saline with Tween-80 104 % of control

Nc1ccc2cc(Cl)[nH]c(=O)c2c1
inactive: [1] 100 % of control | [2] 94 % of control | [3] 97 % of control

O=C(O)C[P+](Cc1ccccc1)(c1ccccc1)c1ccccc1
inactive: dose: 25.0 mg/kg/injection, schedule: Q01DX009 (ip), vehicle: Klucel (hydroxypropylcellulose) (HPC) 97 % of control | [6] 102 % of control and 113 % of control | [7] 101 % of control and 103 % of control | [8] 95 % of control

CN1CCc2cc3c(c4c2C1C(O)c1ccccc1-4)OCO3 (stereo not drawn)
inactive: dose: 0.12 mg/kg/injection, schedule: Q01DX009 (ip), vehicle: acid diluted with saline 109 % of control | dose: 0.25 mg/kg/injection, schedule: Q01DX009 (ip), vehicle: acid diluted with saline 97 % of control | dose: 2.0 mg/kg/injection, schedule: Q01DX009 (ip), vehicle: acid diluted with saline 92 % of control | dose: 4.0 mg/kg/injection, schedule: Q01DX009 (ip), vehicle: acid diluted with saline 108 % of control

C1=C(c2ccccc2)C(=Nc2ccccc2)SC1=Nc1ccccc1
inactive: dose: 1.87 mg/kg/injection, schedule: Q01DX005 (ip), vehicle: saline with Tween-80 113 % of control | dose: 7.5 mg/kg/injection, schedule: Q01DX005 (ip), vehicle: saline with Tween-80 107 % of control | dose: 30.0 mg/kg/injection, schedule: Q01DX005 (ip), vehicle: saline with Tween-80 100 % of control | [9] 120 % of control | [10] 122 % of control | [11] 120 % of control

NC1=NC2CC(N1)c1ccc(O)cc1O2 (stereo not drawn)
inactive: dose: 50.0 mg/kg/injection, schedule: Q01DX009 (ip), vehicle: saline 109 % of control | dose: 100.0 mg/kg/injection, schedule: Q01DX009 (ip), vehicle: saline 110 % of control

CCN(CC)CCCNCc1cc(-c2ccccc2)nc2cc(Cl)ccc12
inactive: [12] 102 % of control | [13] 100 % of control | [14] 100 % of control

CCOC(=O)C1=C(O)C(=O)C=C(O)C1=N
inactive: dose: 60.0 mg/kg/injection, schedule: Q01DX005 (ip), vehicle: saline 94 % of control | dose: 120.0 mg/kg/injection, schedule: Q01DX005 (ip), vehicle: saline 94 % of control | dose: 240.0 mg/kg/injection, schedule: Q01DX005 (ip), vehicle: saline 97 % of control

O=C(Nc1ccc(Cl)cc1)Nc1nnc2nc(C(C(=O)/C=C/c3ccccc3)c3nc4nnc(NC(=O)Nc5ccc(Cl)cc5)n4[nH]c3=O)c(=O)[nH]n12
inactive: [9] 103 % of control | [10] 95 % of control | [11] 91 % of control

CCCCCC[N+]1(CC)CCCC1
inactive: dose: 0.78 mg/kg/injection, schedule: Q01DX009 (ip), vehicle: saline 97 % of control | dose: 1.56 mg/kg/injection, schedule: Q01DX009 (ip), vehicle: saline 113 % of control | dose: 3.12 mg/kg/injection, schedule: Q01DX009 (ip), vehicle: saline 98 % of control and 100 % of control

COc1cccc(N=Nc2c(-c3ccccc3)nn(C(N)=S)c2C)c1
inactive: [12] 100 % of control | [13] 89 % of control | [14] 91 % of control

CC(=O)OC1OC(CS[As](C)CCO)C(OC(C)=O)C(OC(C)=O)C1OC(C)=O (stereo not drawn)
inactive: [6] 110 % of control | [7] 112 % of control | [8] 112 % of control

CN1c2ccccc2SC1(C)CCC(=O)O (stereo not drawn)
inactive: [5] 105 % of control | [15] 104 % of control

CC(C)O[Si](OC(C)C)(OC(C)C)OC(C)C
inactive: [6] 101 % of control | [7] 105 % of control | [8] 105 % of control

C[n+]1ccccc1-c1ccc[n+](CCCCC[n+]2cccc(-c3cccc[n+]3C)c2)c1
inactive: dose: 50.0 mg/kg/injection, schedule: Q01DX005 (ip), vehicle: saline 100 % of control and 104 % of control | dose: 100.0 mg/kg/injection, schedule: Q01DX005 (ip), vehicle: saline 99 % of control and 104 % of control | dose: 200.0 mg/kg/injection, schedule: Q01DX005 (ip), vehicle: saline 107 % of control

COc1ccccc1Nc1nc(-c2ccc(O)c(O)c2)cs1
inactive: [12] 97 % of control | [13] 89 % of control | [14] 103 % of control

COC(=O)c1ncn(Cc2ccccc2)c1O (tested in a mixture with another compound)
inactive: dose: 60.0 mg/kg/injection, schedule: Q01DX005 (ip), vehicle: water 93 % of control | dose: 120.0 mg/kg/injection, schedule: Q01DX005 (ip), vehicle: water 107 % of control | dose: 240.0 mg/kg/injection, schedule: Q01DX005 (ip), vehicle: water 110 % of control

O=c1c2ccccc2c(Br)c(Br)c2ccccc12
inactive: [9] 106 % of control | [10] 110 % of control | [11] 109 % of control

CC(/C=C/c1ccc(O)cc1)=N\NC(N)=O
inactive: [4] 103 % of control | [5] 99 % of control | [15] 104 % of control | dose: 240.0 mg/kg/injection, schedule: Q01DX005 (ip), vehicle: Klucel (hydroxypropylcellulose) (HPC) 101 % of control

COc1ccc(/C=C(/C#N)c2ccccc2)cc1
inactive: dose: 100.0 mg/kg/injection, schedule: Q04DX003 (ip), vehicle: other 100 % of control | dose: 200.0 mg/kg/injection, schedule: Q04DX003 (ip), vehicle: other 100 % of control | dose: 400.0 mg/kg/injection, schedule: Q04DX003 (ip), vehicle: other 104 % of control
